The CheMixHub viscosity set

Assay: xn = mol fraction of the nth substance listed

O=S1(=O)CCCC1 + Cc1cccc(C)c1
viscosity [mPa·s], 101.3 kPa
Details | x2 = 0.1117 | x2 = 0.2206 | x2 = 0.3267 | x2 = 0.4301 | x2 = 0.531 | x2 = 0.6294 | x2 = 0.7254 | x2 = 0.8191 | x2 = 0.9106
303.15 K | 6.231 | 4.214 | 2.961 | 2.171 | 1.65 | 1.275 | 1.007 | 0.7887 | 0.6551
323.15 K | 4.014 | 2.798 | 2.042 | 1.543 | 1.204 | 0.9507 | 0.7638 | 0.6203 | 0.5221

Nc1ccccc1Cl + Cc1cccc(Cl)c1
viscosity [mPa·s], 101 kPa
Details | x1 = 0.1012 | x1 = 0.2056 | x1 = 0.3125 | x1 = 0.4056 | x1 = 0.5026 | x1 = 0.6025 | x1 = 0.7145 | x1 = 0.818 | x1 = 0.91
303.15 K | 0.9087 | 1.109 | 1.348 | 1.587 | 1.867 | 2.19 | 2.595 | 3.009 | 3.408
308.15 K | 0.8581 | 1.047 | 1.269 | 1.489 | 1.743 | 2.032 | 2.386 | 2.74 | 3.073
313.15 K | 0.812 | 0.99 | 1.199 | 1.402 | 1.634 | 1.893 | 2.205 | 2.507 | 2.786
318.15 K | 0.7685 | 0.9398 | 1.138 | 1.329 | 1.544 | 1.78 | 2.056 | 2.316 | 2.545

Cc1ccc(O)cc1 + Cc1cccc(O)c1
Details | viscosity [mPa·s]
298.15 K, 101 kPa, x2 = 0.1388 | 14.5
298.15 K, 101 kPa, x2 = 0.2461 | 14.32
298.15 K, 101 kPa, x2 = 0.3003 | 14.25
298.15 K, 101 kPa, x2 = 0.452 | 14
298.15 K, 101 kPa, x2 = 0.4823 | 13.93
298.15 K, 101 kPa, x2 = 0.5521 | 13.85
298.15 K, 101 kPa, x2 = 0.6238 | 13.73
298.15 K, 101 kPa, x2 = 0.6733 | 13.69
298.15 K, 101 kPa, x2 = 0.7071 | 13.61
298.15 K, 101 kPa, x2 = 0.7373 | 13.6
298.15 K, 101 kPa, x2 = 0.8267 | 13.52
298.15 K, 101 kPa, x2 = 0.9135 | 13.46
313.15 K, 101.3 kPa, x2 = 0.1 | 6.798
313.15 K, 101.3 kPa, x2 = 0.2 | 6.861
313.15 K, 101.3 kPa, x2 = 0.3 | 6.878
313.15 K, 101.3 kPa, x2 = 0.4 | 6.855
313.15 K, 101.3 kPa, x2 = 0.5 | 6.75
313.15 K, 101.3 kPa, x2 = 0.6 | 6.625
313.15 K, 101.3 kPa, x2 = 0.7 | 6.547
313.15 K, 101.3 kPa, x2 = 0.8 | 6.409
313.15 K, 101.3 kPa, x2 = 0.9 | 6.321
323.15 K, 101.3 kPa, x2 = 0.1 | 4.564
323.15 K, 101.3 kPa, x2 = 0.2 | 4.653
323.15 K, 101.3 kPa, x2 = 0.3 | 4.653
323.15 K, 101.3 kPa, x2 = 0.4 | 4.618
323.15 K, 101.3 kPa, x2 = 0.5 | 4.54
323.15 K, 101.3 kPa, x2 = 0.6 | 4.439
323.15 K, 101.3 kPa, x2 = 0.7 | 4.337
323.15 K, 101.3 kPa, x2 = 0.8 | 4.246
323.15 K, 101.3 kPa, x2 = 0.9 | 4.175

CC(O)CC(C)(C)O (configuration not stated) + Cc1ccccc1
viscosity [mPa·s], 101 kPa
Details | x1 = 0.1346 | x1 = 0.1954 | x1 = 0.2938 | x1 = 0.3816 | x1 = 0.4929 | x1 = 0.5952 | x1 = 0.6969 | x1 = 0.7998 | x1 = 0.8958
308.15 K | 0.6243 | 0.7011 | 0.8906 | 1.182 | 1.708 | 2.106 | 3.293 | 5.905 | 9.863
318.15 K | 0.4797 | 0.5572 | 0.739 | 0.983 | 1.41 | 1.753 | 2.719 | 4.872 | 8.571
